Source: US9757393B2 (priority 2015, dated 2017)

Legend:
[1] = tested on: HFD-fed C57BL/6J mice; assay: Hepatic lipid in HFD-fed mice; format: in vivo; conditions: oral gavage daily for 4 weeks
Method: (§1) Experimental Animals: the experiments are conducted under the guidelines of the Institutional Animal Care and Use Committee of Central Taiwan University of Science and Technology. As previously described, four-week-old male C57BL/6J mice (n=63) is purchased from the National Laboratory Animal Breeding and Research Center, Ministry of Science and Technology. After 1-week of acclimatization, mice are designed to initiate the study, and the study lasts for 12 weeks. […] The CON group and high-fat control (HF) group are given with vehicle only. The low-fat diet consisted of fat 10%, whereas the high-fat diet (HFD) consisted of fat 45% (of total energy, % kcal). The compositions of the experimental diets are shown as described. At the end of the study, food is derived from the animals (from 10 p.m. to 10 a.m.). On the next day, the mice are sacrificed, and blood and tissue are collected for analysis. Livers, skeletal muscles, and white adipose tissues (WATs) (including epididymal, mesenteric and retroperitoneal WAT) are excised and weighed, and then immediately stored in a freezer at −80° C. Heparin (30 units/mL) (Sigma) is added to blood samples. Plasma samples are collected by centrifugation at 1600 g for 15 min at 4° C. within 30 min, and plasma is obtained for insulin and leptin level analysis.
Blood Lipid and Hepatic Lipid. Hepatic lipids are extracted as previously described. Liver sample (0.375 g) is homogenized with 1 mL of distilled water for 5 min for the hepatic lipid extraction and analyzed using a triglycerides kit as used for serum lipids.

[2] = tested on: PEPCK mRNA; assay: Semiquantitative RT-PCR, liver tissue: PEPCK; format: in vivo, C57BL/6J mice; conditions: HFD-fed mice
Method: as §1
(§2) The experiment is performed as in a previously described protocol. Total RNA from the liver tissue is isolated with a Trizol reagent (Molecular Research Center, Inc., Cincinnati, Ohio, USA) according to the manufacturer's directions. Total RNA (1 μg) is reverse transcribed to cDNA with 5 μL of Moloney murine leukemia virus reverse transcriptase (Epicenter, Madison, Wis., USA) as a previously described protocol. […] The relative density of the band is evaluated using AlphaDigiDoc 1201 software (Alpha Innotech Co., San Leandro, Calif., USA). All of the measured PCR products are normalized to the amount of cDNA of GAPDH in each sample.

[3] = tested on: DGAT2 mRNA; assay: Semiquantitative RT-PCR, liver tissue: DGAT2; format: in vivo, C57BL/6J mice; conditions: HFD-fed mice
Method: as §1, §2

[4] = tested on: apo C-III mRNA; assay: Semiquantitative RT-PCR, liver tissue: apo C-III; format: in vivo, C57BL/6J mice; conditions: HFD-fed mice
Method: as §1, §2

[5] = tested on: SREBP2 mRNA; assay: Semiquantitative RT-PCR, liver tissue: SREBP2; format: in vivo, C57BL/6J mice; conditions: HFD-fed mice
Method: as §1, §2

[6] = tested on: apo A-I mRNA; assay: Semiquantitative RT-PCR, liver tissue: apo A-I; format: in vivo, C57BL/6J mice; conditions: HFD-fed mice
Method: as §1, §2

[7] = tested on: membrane GLUT4; assay: Western blotting of membrane GLUT4 in skeletal muscle; format: in vivo, C57BL/6J mice; conditions: HFD-fed mice; for muscular membrane GLUT4 protein contents: vs HF group
Method: as §1
Protein extractions and immunoblots for the determination of membrane GLUT4, phospho-AMPK (Thr172), and phospho-Akt (Ser 473) proteins are carried out on frozen skeletal muscle and liver tissue from mice, which follows a previous paper. Additionally, membrane GLUT4 is carried out on frozen skeletal muscle from mice, and the total membrane fractions are collected with buffer and centrifuged as a previously described. The protein contents of membrane GLUT4, phospho-AMPK, phospho-Akt, total AMPK, and total Akt are detected by western blotting. Western blotting has been determined as described elsewhere. Subsequently, antibodies are detected using horseradish peroxidase linked to a goat anti-IgG rabbit secondary antibody and visualized using an ECL system. Membrane GLUT4, structural proteins GAPDH and β-actin are purchased from Santa Cruz Biotechnology (Santa Cruz, Calif., USA); phospho-AMPK was obtained from Abcam Inc. (Cambridge, Mass., USA); phospho-Akt, total AMPK, and total Akt are from Cell Signaling Technology, Inc. (Danver Mass., USA); the BCA protein assay kit is from Thermo Scientific (Rockford, Ill., USA); and the ECL reagent kit is from GE Healthcare BioSciences (Buckinghamshire, UK). The secondary antibody antirabbit is from Jackson ImmunoResearch Laboratories, Inc. (West Grove, Pa., USA). The density blotting is analyzed using Alpha Easy FC software (Alpha Innotech Corp., Randburg, South Africa). Structural proteins GAPDH and β-actin are obtained by stripping the nitrocellulose membrane proteins of liver and skeletal muscle, respectively.

[8] = tested on: phospho-Akt (Ser 473)/total Akt; assay: Western blotting of phospho-Akt (Ser 473)/total Akt; format: in vivo, C57BL/6J mice; conditions: HFD-fed mice, vs HF mice
Method: as §1
Protein extractions and immunoblots for the determination of membrane GLUT4, phospho-AMPK (Thr172), and phospho-Akt (Ser 473) proteins are carried out on frozen skeletal muscle and liver tissue from mice, which follows a previous paper. […] The protein contents of membrane GLUT4, phospho-AMPK, phospho-Akt, total AMPK, and total Akt are detected by western blotting. Western blotting has been determined as described elsewhere. Subsequently, antibodies are detected using horseradish peroxidase linked to a goat anti-IgG rabbit secondary antibody and visualized using an ECL system. […] The density blotting is analyzed using Alpha Easy FC software (Alpha Innotech Corp., Randburg, South Africa). […]

SMILES: CC(C)[C@@H](C)C=C[C@@H](C)[C@H]1CC[C@H]2C3=CCC4C[C@@H](O)CC[C@]4(C)C3=CC[C@]12C (stereo partly drawn) [ergostatrien-3β-ol, ergosta-7,9(11),22-trien-3β-ol]
- Liver Lipids total lipid ([1]; 10 mg/kg/day): 72.4 ± 3.7 mg/g
- Liver Lipids triacylglycerol ([1]; 10 mg/kg/day): 57.3 ± 5.5 µmol/g
- Liver Lipids total lipid ([1]; 20 mg/kg/day): 68.0 ± 4.5 mg/g
- Liver Lipids triacylglycerol ([1]; 20 mg/kg/day): 44.5 ± 4.7 µmol/g
- Liver Lipids total lipid ([1]; 40 mg/kg/day): 65.4 ± 4.2 mg/g
- Liver Lipids triacylglycerol ([1]; 40 mg/kg/day): 43.7 ± 6.6 µmol/g
- mRNA level of PEPCK ([2]; 10 mg/kg/day): decreased
- mRNA level of PEPCK ([2]; 20 mg/kg/day): decreased
- mRNA level of PEPCK ([2]; 40 mg/kg/day): decreased
- mRNA level of DGAT2 ([3]; 10 mg/kg/day): decreased
- mRNA level of DGAT2 ([3]; 20 mg/kg/day): decreased
- mRNA level of DGAT2 ([3]; 40 mg/kg/day): decreased
- mRNA level of apo C-III ([4]; 10 mg/kg/day): decreased
- mRNA level of apo C-III ([4]; 20 mg/kg/day): decreased
- mRNA level of apo C-III ([4]; 40 mg/kg/day): decreased
- mRNA level of SREBP2 ([5]; 10 mg/kg/day): decreased
- mRNA level of SREBP2 ([5]; 20 mg/kg/day): decreased
- mRNA level of SREBP2 ([5]; 40 mg/kg/day): decreased
- mRNA levels of apolipoprotein A-I (apo A-I) ([6]; 10 mg/kg/day): increased
- mRNA levels of apolipoprotein A-I (apo A-I) ([6]; 20 mg/kg/day): increased
- mRNA levels of apolipoprotein A-I (apo A-I) ([6]; 40 mg/kg/day): increased
- enhancement of muscular membrane GLUT4 protein ([7]; 40 mg/kg/day): approximately 2.7 fold
- muscular membrane GLUT4 protein contents ([7]; 10 mg/kg/day): increased
- muscular membrane GLUT4 protein contents ([7]; 20 mg/kg/day): increased
- muscular membrane GLUT4 protein contents ([7]; 40 mg/kg/day): increased
- levels of phospho-Akt/total Akt ([8]; 10 mg/kg/day): higher
- levels of phospho-Akt/total Akt ([8]; 20 mg/kg/day): higher
- levels of phospho-Akt/total Akt ([8]; 40 mg/kg/day): higher
